# Experimental data: patent publication US20100204265A1 (priority 2009, published 2010)
# Tested on: ET (Huh-lucubineo-ET) cell line harboring I389luc-ubi-neo/NS3-3′/ET HCV replicon
# Experiment: Replicon assay (HCV replicon, luciferase readout)
# Assay type: cell-based
# Conditions: Hepatitis C virus
# Protocol: A cell line, ET (Huh-lucubineo-ET) is used for screening of compounds for inhibiting HCV RNA dependent RNA polymerase. The ET cell line is stably transfected with RNA transcripts harboring a I389luc-ubi-neo/NS3-3′/ET; replicon with firefly luciferase-ubiquitin-neomycin phosphotransferase fusion protein and EMCV-IRES driven NS3-5B polyprotein containing the cell culture adaptive mutations (E1202G; T1280I; K1846T) (Krieger at al, 2001 and unpublished). The ET cells are grown in DMEM (Dulbeco's Modified Eagle's Medium), supplemented with 10% fetal calf serum, 2 mM Glutamine, Penicillin (100 IU/mL)/Streptomycin (100 μg/mL), 1× nonessential amino acids, and 250 μg/mL G418 (“Geneticin”). They are all available through Life Technologies (Bethesda, Md.). The cells are plated at 0.5−1.0×10^4 cells/well in the 96 well plates and incubated for 24 hrs before adding test compound. The compounds are added to the cells to achieve a final concentration of 0.1 nM to […] and a final DMSO (dimethylsulfoxide) concentration of 0.5%. Luciferase activity is measured 48-72 hours later by adding a lysis buffer and the substrate (Catalog number Glo-lysis buffer E2661 and Bright-Glo luciferase system E2620 Promega, Madison, Wis.). Cells should not be too confluent during the assay. Percent inhibition of replication data is plotted relative to no compound control. Under the same condition, cytotoxicity of the compounds are determined using cell proliferation reagent, WST-1 (Roche, Germany). The compounds showing antiviral activities, but no significant cytotoxicities are chosen to determine EC50 and TC50. For these determinations, a 10 point, 2-fold serial dilution for each compound was used, which spans a concentration range of 1000 fold. EC50 and similarly TC50 values were calculated by fitting % inhibition at each concentration to the following equation:
# % inhibition=100%/[(EC50/[I])^b+1]
# where b is Hill's coefficient.
row,Compound,EC50 [µM]
1,"O=C(c1nc2c(C(F)(F)F)cc(-c3cn[nH]c3)cn2c1Cl)N1CC=C(C2=CCNCC2)C1 [Compound 136, [3-Chloro-6-(1H-pyrazol-4-yl)-8-trifluoromethyl-imidazo[1,2-a]pyridin-2-yl]-[3-(1,2,3,6-tetrahydro-pyridin-4-yl)-2,5-dihydro-pyrrol-1-yl]-methanone]",5.37
2,"O=C(c1nc2c(C(F)(F)F)cc(-c3cn[nH]c3)cn2c1Cl)N1CC=C(c2cc[nH]n2)C1 [Compound 137, [3-Chloro-6-(1H-pyrazol-4-yl)-8-trifluoromethyl-imidazo[1,2-a]pyridin-2-yl]-[3-(1H-pyrazol-3-yl)-2,5-dihydro-pyrrol-1-yl]-methanone]",> 50
3,"O=C(NCCc1cn2cc(-c3ccoc3)cc(C(F)(F)F)c2n1)c1ccccc1 [Compound 138, N-[2-(6-Furan-3-yl-8-trifluoromethyl-imidazo[1,2-a]pyridin-2-yl)-ethyl]-benzamide]",35.3
4,"CS(=O)(=O)NC1CN(C(=O)c2nc3c(C(F)(F)F)cc(-c4ccco4)cn3c2Cl)C1 [Compound 139, N-[1-(3-Chloro-6-furan-2-yl-8-trifluoromethyl-imidazo[1,2-a]pyridine-2-carbonyl)-azetidin-3-yl]-methanesulfonamide]",0.112
5,"CS(=O)(=O)NC1CN(C(=O)c2nc3c(C(F)(F)F)cc(Br)cn3c2Cl)C1 [Compound 140, N-[1-(6-Bromo-3-chloro-8-trifluoromethyl-imidazo[1,2-a]pyridine-2-carbonyl)-azetidin-3-yl]-methanesulfonamide]",13.8
6,"CS(=O)(=O)NC1CN(C(=O)c2nc3c(C(F)(F)F)cc(-c4cccc(F)c4)cn3c2Cl)C1 [Compound 141, N-{1-[3-Chloro-6-(3-fluoro-phenyl)-8-trifluoromethyl-imidazo[1,2-a]pyridine-2-carbonyl]-azetidin-3-yl}-methanesulfonamide]",0.476
7,"CS(=O)(=O)NC1CN(C(=O)c2nc3c(C(F)(F)F)cc(-c4cccnc4)cn3c2Cl)C1 [Compound 142, N-[1-(3-Chloro-6-pyridin-3-yl-8-trifluoromethyl-imidazo[1,2-a]pyridine-2-carbonyl)-azetidin-3-yl]-methanesulfonamide]",1.94
8,"CN(C1CN(C(=O)c2nc3c(C(F)(F)F)cc(-c4ccoc4)cn3c2Cl)C1)S(C)(=O)=O [Compound 143, N-[1-(3-Chloro-6-furan-3-yl-8-trifluoromethyl-imidazo[1,2-a]pyridine-2-carbonyl)-azetidin-3-yl]-N-methyl-methanesulfonamide]",0.901
9,"CS(=O)(=O)N(CCO)C1CN(C(=O)c2nc3c(C(F)(F)F)cc(-c4ccoc4)cn3c2Cl)C1 [Compound 144, N-[1-(3-Chloro-6-furan-3-yl-8-trifluoromethyl-imidazo[1,2-a]pyridine-2-carbonyl)-azetidin-3-yl]-N-(2-hydroxy-ethyl)-methanesulfonamide]",7.55
10,"CS(=O)(=O)NC1CN(C(=O)c2cn3cc(-c4coc(Br)c4)cc(C(F)(F)F)c3n2)C1 [Compound 145, N-{1-[6-(5-Bromo-furan-3-yl)-8-trifluoromethyl-imidazo[1,2-a]pyridine-2-carbonyl]-azetidin-3-yl}-methanesulfonamide]",3.5
11,"CCS(=O)(=O)NC1CN(C(=O)c2cn3cc(-c4coc(Br)c4)cc(C(F)(F)F)c3n2)C1 [Compound 146, Ethanesulfonic acid {1-[6-(5-bromo-furan-3-yl)-8-trifluoromethyl-imidazo[1,2-a]pyridine-2-carbonyl]-azetidin-3-yl}-amide]",2.24
12,"O=C(c1cn2cc(-c3coc(Br)c3)cc(C(F)(F)F)c2n1)N1CC(NS(=O)(=O)C2CC2)C1 [Compound 147, Cyclopropanesulfonic acid {1-[6-(5-bromo-furan-3-yl)-8-trifluoromethyl-imidazo[1,2-a]pyridine-2-carbonyl]-azetidin-3-yl}-amide]",3.99
13,"O=C(c1nc2c(C(F)(F)F)cc(-c3ccoc3)cn2c1C1CC1)N1CC=C(c2ncccc2F)CC1 [Compound 149, (3-Cyclopropyl-6-furan-3-yl-8-trifluoromethyl-imidazo[1,2-a]pyridin-2-yl)-(3-fluoro-3′,6′-dihydro-2′H-[2,4′]bipyridinyl-1′-yl)-methanone]",5.08
14,"O=C(c1nc2c(C(F)(F)F)cc(C3=CCCC3)cn2c1Cl)N1CC=C(c2nccs2)C1 [Compound 150, (3-Chloro-6-cyclopent-1-enyl-8-trifluoromethyl-imidazo[1,2-a]pyridin-2-yl)-(3-thiazol-2-yl-2,5-dihydro-pyrrol-1-yl)-methanone]",0.00686
15,"O=C(c1nc2c(C(F)(F)F)cc(C3=CCCC3)cn2c1Cl)N1CC=C(c2ncccc2F)CC1 [Compound 151, (3-Chloro-6-cyclopent-1-enyl-8-trifluoromethyl-imidazo[1,2-a]pyridin-2-yl)-(3-fluoro-3′,6′-dihydro-2′H-[2,4′]bipyridinyl-1′-yl)-methanone]",0.734
16,"O=C(c1nc2c(C(F)(F)F)cc(-c3ccoc3)cn2c1Cl)N1CCC(NCC2CC2)CC1 [Compound 152, (3-Chloro-6-furan-3-yl-8-trifluoromethyl-imidazo[1,2-a]pyridin-2-yl)-[4-(cyclopropylmethyl-amino)-piperidin-1-yl]-methanone]",19
17,"COC(=O)C(NC(=O)c1cn2cc(-c3ccoc3)cc(C(F)(F)F)c2n1)C(C)(C)C (stereo not drawn) [Compound 154, 2-[(6-Furan-3-yl-8-trifluoromethyl-imidazo[1,2-a]pyridine-2-carbonyl)-amino]-3,3-dimethyl-butyric acid methyl ester]",27.7
18,"COC(=O)C(Cc1cnc[nH]1)NC(=O)c1cn2cc(-c3ccoc3)cc(C(F)(F)F)c2n1 (stereo not drawn) [Compound 155, 2-[(6-Furan-3-yl-8-trifluoromethyl-imidazo[1,2-a]pyridine-2-carbonyl)-amino]-3-(3H-imidazol-4-yl)-propionic acid methyl ester]",44.5
19,"COC(=O)C(CC(C)C)NC(=O)c1cn2cc(-c3ccoc3)cc(C(F)(F)F)c2n1 (stereo not drawn) [Compound 156, 2-[(6-Furan-3-yl-8-trifluoromethyl-imidazo[1,2-a]pyridine-2-carbonyl)-amino]-4-methyl-pentanoic acid methyl ester]",46.8
20,"COC(=O)C(Cc1ccccc1)NC(=O)c1cn2cc(-c3ccoc3)cc(C(F)(F)F)c2n1 (stereo not drawn) [Compound 157, 2-[(6-Furan-3-yl-8-trifluoromethyl-imidazo[1,2-a]pyridine-2-carbonyl)-amino]-3-phenyl-propionic acid methyl ester]",> 50
21,"CC(C)CCOC1CCN(C(=O)c2nc3c(C(F)(F)F)cc(-c4ccoc4)cn3c2Cl)CC1 [Compound 158, (3-Chloro-6-furan-3-yl-8-trifluoromethyl-imidazo[1,2-a]pyridin-2-yl)-[4-(3-methyl-butoxy)-piperidin-1-yl]-methanone]",8.11
22,"O=C1CCC=C1C1=CCN(C(=O)c2nc3c(C(F)(F)F)cc(-c4ccoc4)cn3c2Cl)CC1 [Compound 159, 2-[1-(3-Chloro-6-furan-3-yl-8-trifluoromethyl-imidazo[1,2-a]pyridine-2-carbonyl)-1,2,3,6-tetrahydro-pyridin-4-yl]-cyclopent-2-enone]",0.247
23,"O=C(c1nc2c(C(F)(F)F)cc(-c3ccoc3)cn2c1Cl)N1CC[C@@H](NC(=O)C(F)(F)F)C1 [Compound 162, N-[1-(3-Chloro-6-furan-3-yl-8-trifluoromethyl-imidazo[1,2-a]pyridine-2-carbonyl)-pyrrohdin-3-yl]-2,2,2-trifluoro-acetamide]",43.5
24,"FC(F)(F)c1cc(-c2ccoc2)cn2cc(CN3CC=C(c4nccs4)C3)nc12 [Compound 163, 6-Furan-3-yl-2-(3-thiazol-2-yl-2,5-dihydro-pyrrol-1-ylmethyl)-8-trifluoromethyl-imidazo[1,2-a]pyridine]",42.4
25,"C=CC(=O)N[C@@H]1CCN(C(=O)c2nc3c(C(F)(F)F)cc(-c4ccoc4)cn3c2Cl)C1 [Compound 167, N-[1-(3-Chloro-6-furan-3-yl-8-trifluoromethyl-imidazo[1,2-a]pyridine-2-carbonyl)-pyrrolidin-3-yl]-acrylamide]",1.68
26,"N#Cc1c(-c2ccoc2)cc(C(F)F)c2nc(C(=O)N3CC=C(c4nccs4)C3)c(Cl)n12 [Compound 169, 3-Chloro-8-difluoromethyl-6-furan-3-yl-2-(3-thiazol-2-yl-2,5-dihydro-pyrrole-1-carbonyl)-imidazo[1,2-a]pyridine-5-carbonitrile]",0.28
27,"O=C(c1nc2c(C(F)(F)F)cc(-c3ccoc3)cn2c1CO)N1CC=C(c2nccs2)C1 [Compound 170, (6-Furan-3-yl-3-hydroxymethyl-8-trifluoromethyl-imidazo[1,2-a]pyridin-2-yl)-(3-thiazol-2-yl-2,5-dihydro-pyrrol-1-yl) methanone]",0.026
